Consider 40 molecules from ChEMBL document CHEMBL4828757, “Further hit optimization of 6-(trifluoromethyl)pyrimidin-2-amine based TLR8 modulators: Synthesis, biological evaluation and structure-activity relationships” (Eur J Med Chem, 2021).

As usually defined, the inhibition is the share of the control response that was lost under treatment. The term IC50 denotes the concentration at which inhibition is half-maximal.

Active and inactive are the calls of the source. No cut-off for these calls is given here.

One data set concerns the target T1, Toll-like receptor 8 (Homo sapiens) (UniProt Q9NR97).
T1 sequence (whole entry): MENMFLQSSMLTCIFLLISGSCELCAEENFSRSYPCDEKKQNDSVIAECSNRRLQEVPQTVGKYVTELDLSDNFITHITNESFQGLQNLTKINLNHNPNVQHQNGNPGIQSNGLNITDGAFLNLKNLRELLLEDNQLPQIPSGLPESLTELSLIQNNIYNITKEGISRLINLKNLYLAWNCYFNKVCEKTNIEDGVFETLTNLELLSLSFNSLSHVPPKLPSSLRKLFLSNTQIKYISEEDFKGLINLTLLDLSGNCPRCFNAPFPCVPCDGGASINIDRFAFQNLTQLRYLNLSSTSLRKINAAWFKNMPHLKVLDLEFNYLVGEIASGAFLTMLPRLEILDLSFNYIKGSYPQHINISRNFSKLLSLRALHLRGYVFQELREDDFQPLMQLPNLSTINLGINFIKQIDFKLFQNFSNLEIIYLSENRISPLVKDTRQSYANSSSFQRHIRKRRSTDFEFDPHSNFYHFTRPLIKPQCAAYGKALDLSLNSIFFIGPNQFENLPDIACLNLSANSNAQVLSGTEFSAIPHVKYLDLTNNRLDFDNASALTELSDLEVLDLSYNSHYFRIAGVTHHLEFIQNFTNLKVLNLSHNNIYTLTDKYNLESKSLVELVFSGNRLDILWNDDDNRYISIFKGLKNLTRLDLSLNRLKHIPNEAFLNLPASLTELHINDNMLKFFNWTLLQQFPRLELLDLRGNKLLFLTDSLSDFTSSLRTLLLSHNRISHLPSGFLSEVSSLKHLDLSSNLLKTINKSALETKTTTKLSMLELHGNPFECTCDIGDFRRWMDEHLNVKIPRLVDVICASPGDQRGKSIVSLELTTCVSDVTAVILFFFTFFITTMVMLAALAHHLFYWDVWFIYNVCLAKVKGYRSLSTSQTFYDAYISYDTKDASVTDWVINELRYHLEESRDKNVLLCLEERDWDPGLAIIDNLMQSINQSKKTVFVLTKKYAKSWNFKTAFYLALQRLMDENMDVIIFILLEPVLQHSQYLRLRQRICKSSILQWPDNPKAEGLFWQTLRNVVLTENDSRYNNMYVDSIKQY
The data set is described as follows: Negative modulator activity at human TLR8 expressed in HEK-Blue hTLR8 cells assessed as inhibition of TL8-506 stimulated NF-kappaB activation at 10 uM preincubated with compound for 1 hr followed by TL8-506 stimulation for 24 hrs by SEAP-based colorimetric assay. The format is cell-based. To be noted: filed as modulator, time 25.0 hrs.
Turning to `FC(F)(F)c1cc(-c2ccccc2)nc(NCc2cccs2)n1`, the inhibition came out at 50%.

The next data set has as its target T1, Toll-like receptor 8 (Homo sapiens). The data set can be described thus: (§1) Negative modulator activity at human TLR8 expressed in HEK-Blue hTLR8 cells assessed as inhibition of TL8-506 stimulated NF-kappaB activation preincubated with compound for 1 hr followed by TL8-506 stimulation for 24 hrs by SEAP-based colorimetric assay. The format is cell-based. Conditions: filed as modulator, time 25.0 hrs.
With `COc1ccc(-c2cc(C(F)(F)F)nc(NCc3cccs3)n2)cc1`, the inhibition result is “Active”.

In the case of `Cc1ccc(-c2cc(C(F)(F)F)nc(NCc3cccs3)n2)cc1`, the inhibition result was “Active”.

With `Cc1cc(-c2ccco2)nc(NCc2cccs2)n1`, the inhibition result is “Active”.

The data set is the same for the next values; noted with them: time 25.0 hrs.
In the case of `CCCCCCNc1nc(-c2ccco2)cc(C(F)(F)F)n1`, the inhibition result was “inactive”. Same read-out and setting: as for `FC(F)(F)c1cc(-c2ccco2)nc(NC2CCC2)n1`, the entry is “inactive”; as for `Cc1cc(C(F)(F)F)nc(NCc2cccs2)n1`, “inactive”. Still for that read-out and setting: to `FC(F)(F)c1cc(-c2ccco2)ncn1` belongs “inactive”. The same measure, in the same setting: to `CC(C)Nc1nc(-c2ccco2)cc(C(F)(F)F)n1` belongs “inactive”; to `FC(F)(F)c1cc(-c2ccco2)nc(NCC2CC2)n1`, “inactive”; to `FC(F)(F)c1cc(C2CCCCC2)nc(NCc2cccs2)n1`, “inactive”. For the molecule `CCNc1nc(-c2ccco2)cc(C(F)(F)F)n1`, the inhibition result is “inactive”. For the molecule `OCCNc1nc(-c2ccco2)cc(C(F)(F)F)n1`, the inhibition entry was “inactive”. The same measure, in the same setting: as for `OCCOCCNc1nc(-c2ccco2)cc(C(F)(F)F)n1`, the entry is “inactive”; as for `FC(F)(F)c1cc(-c2ccco2)nc(NC2CC2)n1`, “inactive”; as for `FC(F)(F)c1ccnc(NCc2cccs2)n1`, “inactive”. Same read-out and setting: to `c1coc(-c2ccnc(NCc3cccs3)n2)c1` belongs “inactive”; to `CCCCNc1nc(-c2ccco2)cc(C(F)(F)F)n1`, “inactive”. Still for that read-out and setting: as for `FC(F)(F)c1cc(-c2ccco2)nc(NCCN2CCOCC2)n1`, the entry is “inactive”.

`FC(F)(F)c1cc(-c2ccco2)nc(NC2CCCCC2)n1`: the inhibition entry is “inactive”. On the same count and under the same terms, as for `FC(F)(F)c1cc(-c2ccco2)nc(NC2CCCC2)n1`, the entry is “inactive”; as for `CC(C)CNc1nc(-c2ccco2)cc(C(F)(F)F)n1`, “inactive”.

Consider `C=CCNc1nc(-c2ccco2)cc(C(F)(F)F)n1`, for which the inhibition entry was “inactive”. With `CCCNc1nc(-c2ccco2)cc(C(F)(F)F)n1`, the inhibition entry was “inactive”.

Another data set deals with T2, Toll-like receptor 8 (Homo sapiens, UniProt Q9NR97).
T2 sequence (Q9NR97 whole entry): T1 sequence (whole entry)
Described as §1. The format is cell-based. To be noted: hek-blue htlr8.
`OCc1cccc(CNc2nc(-c3ccco3)cc(C(F)(F)F)n2)c1`: the half-inhibitory concentration (IC50) result was “Not Active”. The same measure, in the same setting: as for `COc1cccc(CNc2nc(-c3ccco3)cc(C(F)(F)F)n2)c1`, the entry is “Not Active”; as for `Oc1cccc(CNc2nc(-c3ccccc3)cc(C(F)(F)F)n2)c1`, “Not Active”. Same read-out and setting: as for `O=C(O)c1ccc(CNc2nc(-c3ccco3)cc(C(F)(F)F)n2)cc1`, the entry is “Not Active”; as for `COc1ccc(CNc2nc(-c3ccco3)cc(C(F)(F)F)n2)cc1`, “Not Active”.

As for `CS(=O)(=O)c1nc(-c2ccccc2)cc(C(F)(F)F)n1`, the IC50 entry is recorded as “Not Active”.

Staying with this data set, now noted: read-out: IC50.
As for `FC(F)(F)c1cc(-c2ccco2)nc(NCc2ccccc2)n1`, the IC50 is above 100 µM. `Oc1cccc(CNc2nc(C3CCCCC3)cc(C(F)(F)F)n2)c1`: the IC50 amounted to 22 µM. Same read-out and setting: to `FC(F)(F)c1cc(-c2ccco2)nc(NCCc2ccccc2)n1` belongs above 100 µM; to `Oc1ccc(CNc2nc(-c3ccco3)cc(C(F)(F)F)n2)cc1`, 11 µM. The same measure, in the same setting: as for `Oc1cccc(CNc2nc(-c3ccco3)cc(C(F)(F)F)n2)c1`, the figure is 23 µM. Regarding `FC(F)(F)c1cc(-c2ccco2)nc(Nc2ccccc2)n1`, the IC50 amounted to 77 µM.

Another data set concerns the target T1, Toll-like receptor 8 (Homo sapiens). The data set is described as follows: Negative modulator activity at human TLR8 expressed in HEK-Blue hTLR8 cells assessed as inhibition of TL8-506 stimulated NF-kappaB activation at 25 uM preincubated with compound for 1 hr followed by TL8-506 stimulation for 24 hrs by SEAP-based colorimetric assay. Conditions: filed as modulator, time 25.0 hrs. The format is cell-based.
For `NCc1ccc(CNc2nc(-c3ccco3)cc(C(F)(F)F)n2)cc1`, the inhibition was determined as 75%. On the same count and under the same terms, to `FC(F)(F)c1cc(-c2ccccc2)nc(NCc2cccs2)n1` belongs 60%; to `NCc1cccc(CNc2nc(-c3ccco3)cc(C(F)(F)F)n2)c1`, 50%.

Test system in a further data set: not listed separately
The data set can be described thus: Cytotoxicity against human PBMC cells assessed as reduction in cell viability up to 50 uM incubated for 48 hrs by MTS assay. The format is cell-based.
Settings: not given
A general note: Formazan colour is commonly taken as a measure of viable cells.
Take `OCc1ccc(CNc2nc(-c3ccco3)cc(C(F)(F)F)n2)cc1`: the Activity result was “Non-Toxic”.

Test system in a further data set: not listed separately
The data set is described as follows: Cytotoxicity against human PBMC cells assessed as reduction in cell viability at 10 uM incubated for 48 hrs by MTS assay. The format is cell-based.
Settings: not given
As for `CS(=O)(=O)c1nc(-c2ccco2)cc(C(F)(F)F)n1`, the Activity entry is “Toxic”.

Test system in a further data set: not listed separately
The data set is described as follows: Cytotoxicity against human HEK-Blue hTLR8 cells assessed as reduction in cell viability at 50 uM by MTT assay. The format is cell-based. Conditions: HEK-Blue hTLR8 cells, read-out: INH.
Consider `FC(F)(F)c1cc(-c2ccccc2)nc(NCc2cccs2)n1`, for which the cytotoxicity at 50 µM was 40%.

The data set is the same for the next values; noted with them: hek-blue htlr8, 50 µM.
Regarding `NCc1ccc(CNc2nc(-c3ccco3)cc(C(F)(F)F)n2)cc1`, the Activity result is recorded as “Toxic”. The same measure, in the same setting: as for `NCc1cccc(CNc2nc(-c3ccco3)cc(C(F)(F)F)n2)c1`, the entry is “Toxic”.
